Reference: patent US8809328B2, “Imidazole derivative” (National University Corporation Shizuoka University, priority 2011, dated 2014)

System: rice (Nipponbare) (Oryza sativa L. cv. Nipponbare)
Assay: Influence of AOH on soil cultivation of rice (field cultivation)
Type: in vivo
Experimental: Rice (Nipponbare) (Oryza sativa L. cv. Nipponbare) was used and cultivated in a field as follows. As cultivation conditions, five sections of (1) to (5) were set.
Rice (Nipponbare) (Oryza sativa L. cv. Nipponbare) was sown in a nursery box on Apr. 29, 2011, and provided with a total of 15 liters of tap water or tap water to which AOH was added for two weeks from May 24th while raising seedling in the nursery box. On June 7th, each of grown seedlings was transplanted to the field. The planting density was set to the interrow space of 30 cm and the planting distance of 15 cm (three reproductions of 3×3.3 m per one section). As basal fertilizer, 50 L of tap water or tap water to which AOH was added per section was supplied on June 7th. The cultivation was continued, and as topdressing for panicle formation, 50 L of tap water or tap water to which AOH was added per section was supplied on July 25th. Plant bodies were harvested on October 12th.
(1) Tap water was used as the culture fluid during seedling raising, the basal fertilizer, and the topdressing for panicle formation.
(2) Tap water to which AOH was added such that the final concentration became 0.5 mM was provided as the culture fluid during seedling raising. Tap water was used as the basal fertilizer, and the topdressing for panicle formation.
(3) Tap water to which AOH was added such that the final concentration became 1.0 mM was provided as the culture fluid during seedling raising. Tap water was used as the basal fertilizer and the topdressing for panicle formation.
(4) Tap water to which AOH was added such that the final concentration became 0.5 mM was provided as the basal fertilizer. Tap water was used as the culture fluid during seedling raising and the topdressing for panicle formation.
(5) Tap water to which AOH was added such that the final concentration became 0.5 mM was provided as the topdressing for panicle formation. Tap water was used as the culture fluid during seedling raising and the basal fertilizer.
Brown rice was dried, and total brown rice weight, hull weight, non-sieved brown rice weight and sieved brown rice, per 10 plant bodies, and thousand kernel weight were measured.

[1] = 0.5 mM AOH during seedling raising
[2] = 0.5 mM AOH, topdressing at panicle formation
[3] = 1.0 mM AOH during seedling raising
[4] = per 10 plants, 0.5 mM AOH as basal fertilizer
[5] = per 10 plants, 0.5 mM AOH during seedling raising
[6] = per 10 plants, 0.5 mM AOH, topdressing at panicle formation
[7] = per 10 plants, 1.0 mM AOH during seedling raising

## O=c1[nH]c2nn[nH]c(=O)c2[nH]1 [AOH, 3H-imidazo[4,5-d][1,2,3]triazin-4,6(5H,7H)-dione]
0.5 mM AOH as basal fertilizer
  Increasing rate of sieved brown rice relative to control: 10.5%
  Thousand kernel weight: 23.5 ± 0.6 g
[1]
  Increasing rate of sieved brown rice relative to control: 8.9%
  Thousand kernel weight: 23.0 ± 0.5 g
[2]
  Increasing rate of sieved brown rice relative to control: 7.2%
  Thousand kernel weight: 23.4 ± 0.5 g
[3]
  Increasing rate of sieved brown rice relative to control: 10.2%
  Thousand kernel weight: 23.5 ± 0.3 g
Applying AOH, vs control
  Hull weight: increased more than the control
  Sieved brown rice: increased more than the control
  non-sieved brown rice weight: increased more than the control
  total brown rice weight: increased more than the control
[4]
  Hull weight: 288 ± 23.9 g
  Non-sieved brown rice weight: 230 ± 19.7 g
  Sieved brown rice: 222 ± 19.8 g
  Total weight: 644 ± 49.5 g
[5]
  Hull weight: 283 ± 35.0 g
  Non-sieved brown rice weight: 227 ± 28.9 g
  Sieved brown rice: 218 ± 29.0 g
  Total weight: 630 ± 71.4 g
[6]
  Hull weight: 279 ± 24.9 g
  Non-sieved brown rice weight: 224 ± 20.9 g
  Sieved brown rice: 215 ± 20.7 g
  Total weight: 643 ± 54.1 g
[7]
  Hull weight: 284 ± 24.4 g
  Non-sieved brown rice weight: 228 ± 20.1 g
  Sieved brown rice: 221 ± 19.5 g
  Total weight: 638 ± 59.6 g
